Test results: the supplement of paper PMC8960247
Where a name gives a salt, the structure may show the parent alone. ± gives the standard error.

Key:
[1] = test system: 621-102 (TSC2-deficient); assay: relative viability vs DMSO; higher = less cytotoxic; conditions: serum: 10% FBS, 72 h
[2] = test system: 621-103 (TSC2-rescued); assay: as above; conditions: serum: 10% FBS, 72 h
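Also: immortalized renal angiomyolipoma cells stably carrying empty vector or TSC2, dosed in 384-well plates in DMEM, viability normalized to vehicle-treated wells within each plate.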

With `CN1CCN(C2=Nc3cc(Cl)ccc3Nc3ccccc32)CC1` [Clozapine] the relative viability ([1]; 0.0001 µM) was 100 ± 1.7%, the relative viability ([1]; 0.001 µM) was 108 ± 1.1% and the relative viability ([1]; 0.01 µM) was 105.2 ± 0.32%. The relative viability ([1]; 0.1 µM) was 104 ± 2.2%, the relative viability ([1]; 1 µM) was 94.53 ± 0.49% and the relative viability ([1]; 10 µM) was 98.1 ± 3.2%. It also gave a relative viability ([2]; 0.0001 µM) of 101.3 ± 0.79%, a relative viability ([2]; 0.001 µM) of 113 ± 2.2% and a relative viability ([2]; 0.01 µM) of 109 ± 1.1%. For the same compound, the relative viability ([2]; 0.1 µM) was 105 ± 0.64%, the relative viability ([2]; 1 µM) was 109 ± 0.24% and the relative viability ([2]; 10 µM) was 92.73 ± 0.46%.

In the case of `CC1=C2C[C@H]3[C@@H](CC=C4C[C@@H](O)CC[C@@]43C)[C@@H]2CC[C@]12O[C@@H]1C[C@H](C)CN[C@H]1[C@H]2C` [Cyclopamine], the relative viability ([1]; 0.0001 µM) is reported as 107 ± 4%, the relative viability ([1]; 0.001 µM) is reported as 95.64 ± 0.15% and the relative viability ([1]; 0.01 µM) is reported as 99.7 ± 0.74%. The relative viability ([1]; 0.1 µM) was 103 ± 1.3%, the relative viability ([1]; 1 µM) was 112.9 ± 0.35% and the relative viability ([1]; 10 µM) was 95.49 ± 0.81%. It also gave a relative viability ([2]; 0.0001 µM) of 100 ± 1.7%, a relative viability ([2]; 0.001 µM) of 101 ± 1.4% and a relative viability ([2]; 0.01 µM) of 98.16 ± 0.86%. It also gave a relative viability ([2]; 0.1 µM) of 100.3 ± 0.2%, a relative viability ([2]; 1 µM) of 99.22 ± 0.46% and a relative viability ([2]; 10 µM) of 98.9 ± 2.2%.

With `N#CCNC(=O)c1ccc(-c2ccnc(Nc3ccc(N4CCOCC4)cc3)n2)cc1` [Cyt387] the relative viability ([1]; 0.0001 µM) was 101 ± 5.9%, the relative viability ([1]; 0.001 µM) was 109 ± 4.2% and the relative viability ([1]; 0.01 µM) was 110 ± 1%. It also gave a relative viability ([1]; 0.1 µM) of 113 ± 1.4%, a relative viability ([1]; 1 µM) of 104 ± 0.75% and a relative viability ([1]; 10 µM) of 73.3 ± 2.2%. For the same compound, the relative viability ([2]; 0.0001 µM) was 115 ± 0.87%, the relative viability ([2]; 0.001 µM) was 105.2 ± 0.63% and the relative viability ([2]; 0.01 µM) was 110 ± 1.1%. It also gave a relative viability ([2]; 0.1 µM) of 110.2 ± 0.81%, a relative viability ([2]; 1 µM) of 106 ± 3.2% and a relative viability ([2]; 10 µM) of 83.38 ± 0.51%.

In the case of `Nc1ccn([C@@H]2O[C@H](CO)[C@@H](O)[C@@H]2O)c(=O)n1` [Cytarabine (Cytosar-U)], the relative viability ([1]; 0.0001 µM) is reported as 88.2 ± 4%, the relative viability ([1]; 0.001 µM) is reported as 93.49 ± 0.71% and the relative viability ([1]; 0.01 µM) is reported as 96.2 ± 2.2%. The relative viability ([1]; 0.1 µM) was 89.35 ± 0.62%, the relative viability ([1]; 1 µM) was 74.5 ± 2.8% and the relative viability ([1]; 10 µM) was 49.4 ± 1.1%. It also gave a relative viability ([2]; 0.0001 µM) of 115 ± 4.8%, a relative viability ([2]; 0.001 µM) of 106 ± 4.1% and a relative viability ([2]; 0.01 µM) of 110 ± 0.82%. The relative viability ([2]; 0.1 µM) was 105.2 ± 0.25%, the relative viability ([2]; 1 µM) was 88.313 ± 0.062% and the relative viability ([2]; 10 µM) was 38 ± 0.93%.

Compound `C[C@H](NC(=O)Cc1cc(F)cc(F)c1)C(=O)N[C@H](C(=O)OC(C)(C)C)c1ccccc1` [DAPT (GSI-IX)] has a relative viability ([1]; 0.0001 µM) of 104 ± 4.3%, a relative viability ([1]; 0.001 µM) of 99.1 ± 1.5% and a relative viability ([1]; 0.01 µM) of 100 ± 2.3%. For the same compound, the relative viability ([1]; 0.1 µM) was 97.82 ± 0.41%, the relative viability ([1]; 1 µM) was 97.7 ± 4.1% and the relative viability ([1]; 10 µM) was 97.1 ± 5.9%. For the same compound, the relative viability ([2]; 0.0001 µM) was 94.6 ± 6.5%, the relative viability ([2]; 0.001 µM) was 105.2 ± 0.68% and the relative viability ([2]; 0.01 µM) was 103.7 ± 0.49%. The relative viability ([2]; 0.1 µM) was 101.4 ± 0.89%, the relative viability ([2]; 1 µM) was 97.2 ± 2.8% and the relative viability ([2]; 10 µM) was 98.2 ± 1.4%.

`C[C@]12CC[C@H](O)CC1=CC[C@@H]1[C@@H]2CC[C@]2(C)C(=O)CC[C@@H]12` [DHEA] gave a relative viability ([1]; 0.0001 µM) of 105.05 ± 0.093%, a relative viability ([1]; 0.001 µM) of 105 ± 1.6% and a relative viability ([1]; 0.01 µM) of 99.6 ± 3.3%. It also gave a relative viability ([1]; 0.1 µM) of 104 ± 2.9%, a relative viability ([1]; 1 µM) of 97.2 ± 3.6% and a relative viability ([1]; 10 µM) of 107 ± 1.8%. The relative viability ([2]; 0.0001 µM) was 73.1 ± 4.3%, the relative viability ([2]; 0.001 µM) was 81.7 ± 1.7% and the relative viability ([2]; 0.01 µM) was 80.2 ± 3.5%. It also gave a relative viability ([2]; 0.1 µM) of 86.4 ± 7%, a relative viability ([2]; 1 µM) of 79 ± 6% and a relative viability ([2]; 10 µM) of 71.2 ± 8.4%.

Compound `CC(C)(C)OC(=O)N[C@H]1CCCCC/C=C\[C@@H]2C[C@@]2(C(=O)NS(=O)(=O)C2CC2)NC(=O)[C@@H]2C[C@@H](OC(=O)N3Cc4cccc(F)c4C3)CN2C1=O` [Danoprevir] has a relative viability ([1]; 0.0001 µM) of 105 ± 3.4%, a relative viability ([1]; 0.001 µM) of 111 ± 3.4% and a relative viability ([1]; 0.01 µM) of 113 ± 1.2%. The relative viability ([1]; 0.1 µM) was 114 ± 3.5%, the relative viability ([1]; 1 µM) was 97.9 ± 4.1% and the relative viability ([1]; 10 µM) was 105.7 ± 0.94%. The relative viability ([2]; 0.0001 µM) was 100.3 ± 0.43%, the relative viability ([2]; 0.001 µM) was 104.2 ± 0.88% and the relative viability ([2]; 0.01 µM) was 101 ± 3.4%. It also gave a relative viability ([2]; 0.1 µM) of 101.8 ± 0.53%, a relative viability ([2]; 1 µM) of 98.14 ± 0.84% and a relative viability ([2]; 10 µM) of 99.4 ± 1.5%.

`Cc1nc(Nc2ncc(C(=O)Nc3c(C)cccc3Cl)s2)cc(N2CCN(CCO)CC2)n1` [Dasatinib] gave a relative viability ([1]; 0.0001 µM) of 71.7 ± 5.2%, a relative viability ([1]; 0.001 µM) of 85.1 ± 7.2% and a relative viability ([1]; 0.01 µM) of 70.7 ± 7.3%. For the same compound, the relative viability ([1]; 0.1 µM) was 67.6 ± 4.7%, the relative viability ([1]; 1 µM) was 67.5 ± 5.2% and the relative viability ([1]; 10 µM) was 49.9 ± 2.6%. For the same compound, the relative viability ([2]; 0.0001 µM) was 92.9 ± 1.8%, the relative viability ([2]; 0.001 µM) was 79 ± 2% and the relative viability ([2]; 0.01 µM) was 74.3 ± 4.4%. For the same compound, the relative viability ([2]; 0.1 µM) was 73.9 ± 5.5%, the relative viability ([2]; 1 µM) was 61.2 ± 4.1% and the relative viability ([2]; 10 µM) was 47.4 ± 2%.

With `CN(C)CCOC(c1ccccc1)c1ccccc1` [Diphenhydramine HCl] the relative viability ([1]; 0.0001 µM) was 105 ± 6%, the relative viability ([1]; 0.001 µM) was 97.7 ± 7.7% and the relative viability ([1]; 0.01 µM) was 99.9 ± 7.9%. It also gave a relative viability ([1]; 0.1 µM) of 110 ± 1.5%, a relative viability ([1]; 1 µM) of 91.1 ± 2.4% and a relative viability ([1]; 10 µM) of 101 ± 4.7%. For the same compound, the relative viability ([2]; 0.0001 µM) was 89.4 ± 6.2%, the relative viability ([2]; 0.001 µM) was 82.9 ± 10% and the relative viability ([2]; 0.01 µM) was 106.2 ± 0.96%. For the same compound, the relative viability ([2]; 0.1 µM) was 97.3 ± 2.9%, the relative viability ([2]; 1 µM) was 97.6 ± 1.7% and the relative viability ([2]; 10 µM) was 99.2 ± 1.8%.

For `OCCN(CCO)c1nc(N2CCCCC2)c2nc(N(CCO)CCO)nc(N3CCCCC3)c2n1` [Dipyridamole], the relative viability ([1]; 0.0001 µM) was 102 ± 3%, the relative viability ([1]; 0.001 µM) was 98.3 ± 2.2% and the relative viability ([1]; 0.01 µM) was 101.5 ± 1%. It also gave a relative viability ([1]; 0.1 µM) of 95.2 ± 2.5%, a relative viability ([1]; 1 µM) of 96.7 ± 2.7% and a relative viability ([1]; 10 µM) of 93.4 ± 8.5%. The relative viability ([2]; 0.0001 µM) was 101 ± 2.4%, the relative viability ([2]; 0.001 µM) was 103.1 ± 0.96% and the relative viability ([2]; 0.01 µM) was 103 ± 2.1%. For the same compound, the relative viability ([2]; 0.1 µM) was 104 ± 5.4%, the relative viability ([2]; 1 µM) was 101 ± 6.3% and the relative viability ([2]; 10 µM) was 101 ± 1.5%.

Compound `CC(=O)O[C@@]12CO[C@@H]1C[C@H](O)[C@@]1(C)C(=O)[C@H](O)C3=C(C)[C@@H](OC(=O)[C@H](O)[C@@H](NC(=O)OC(C)(C)C)c4ccccc4)C[C@@](O)([C@@H](OC(=O)c4ccccc4)[C@H]21)C3(C)C` [Docetaxel] has a relative viability ([1]; 0.0001 µM) of 36.3 ± 1.5%, a relative viability ([1]; 0.001 µM) of 32.17 ± 0.058% and a relative viability ([1]; 0.01 µM) of 33.5 ± 1.1%. The relative viability ([1]; 0.1 µM) was 32.5 ± 0.43%, the relative viability ([1]; 1 µM) was 31.8 ± 0.54% and the relative viability ([1]; 10 µM) was 41.7 ± 1.1%. The relative viability ([2]; 0.0001 µM) was 57 ± 0.81%, the relative viability ([2]; 0.001 µM) was 50.6 ± 1% and the relative viability ([2]; 0.01 µM) was 42.9 ± 1.7%. It also gave a relative viability ([2]; 0.1 µM) of 33.2 ± 0.49%, a relative viability ([2]; 1 µM) of 35.55 ± 0.17% and a relative viability ([2]; 10 µM) of 55.5 ± 2%.

`O=c1[nH]c2ccccc2n1CCCN1CCC(n2c(=O)[nH]c3cc(Cl)ccc32)CC1` [Domperidone (Motilium)] gave a relative viability ([1]; 0.0001 µM) of 102.7 ± 0.59%, a relative viability ([1]; 0.001 µM) of 96 ± 10% and a relative viability ([1]; 0.01 µM) of 95.3 ± 3.6%. For the same compound, the relative viability ([1]; 0.1 µM) was 106 ± 1.3%, the relative viability ([1]; 1 µM) was 98.8 ± 1.5% and the relative viability ([1]; 10 µM) was 90.8 ± 2.7%. It also gave a relative viability ([2]; 0.0001 µM) of 99.17 ± 0.87%, a relative viability ([2]; 0.001 µM) of 93.61 ± 0.19% and a relative viability ([2]; 0.01 µM) of 103.3 ± 0.16%. The relative viability ([2]; 0.1 µM) was 110 ± 2%, the relative viability ([2]; 1 µM) was 101.1 ± 0.98% and the relative viability ([2]; 10 µM) was 96.7 ± 2%.

For `COc1cc2c(cc1OC)C(=O)C(CC1CCN(Cc3ccccc3)CC1)C2` (stereo unspecified) [Donepezil HCl], the relative viability ([1]; 0.0001 µM) was 96.2 ± 3.9%, the relative viability ([1]; 0.001 µM) was 108 ± 4.1% and the relative viability ([1]; 0.01 µM) was 103.6 ± 0.26%. The relative viability ([1]; 0.1 µM) was 111 ± 1.3%, the relative viability ([1]; 1 µM) was 101.6 ± 0.44% and the relative viability ([1]; 10 µM) was 86.8 ± 1.3%. It also gave a relative viability ([2]; 0.0001 µM) of 93.1 ± 3%, a relative viability ([2]; 0.001 µM) of 105 ± 2.5% and a relative viability ([2]; 0.01 µM) of 102 ± 4.3%. The relative viability ([2]; 0.1 µM) was 106 ± 1.8%, the relative viability ([2]; 1 µM) was 104 ± 3.4% and the relative viability ([2]; 10 µM) was 93.21 ± 0.93%.
